Assay results: ChEMBL document CHEMBL5154804, “Species-Selective Targeting of Fungal Hsp90: Design, Synthesis, and Evaluation of Novel 4,5-Diarylisoxazole Derivatives for the Combination Treatment of Azole-Resistant Candidiasis” (J Med Chem, 2022)
In brackets after ≈: the same amount, converted by molar mass. Activity calls are given as the source filed them. The rule behind the calls is not given here.

What was measured:
Candida albicans [1] = assay: Antifungal activity against fluconazole-resistant Candida albicans 901 assessed as inhibition of fungal growth by checker board microdilution assay; type: functional
Candida albicans [2] = assay: Antifungal activity against fluconazole-resistant Candida albicans 100 assessed as inhibition of fungal growth by checker board microdilution assay; type: functional
Candida albicans [3] = assay: Synergistic antifungal activity against fluconazole-resistant Candida albicans 311 assessed as inhibition of fungal growth in presence of fluconazole by checker board microdilution assay; type: functional
Candida albicans [4] = assay: Antifungal activity against fluconazole-resistant Candida albicans 103 assessed as inhibition of fungal growth by checker board microdilution assay; type: functional
Candida albicans [5] = assay: Synergistic antifungal activity against fluconazole-resistant Candida albicans 100 assessed as inhibition of fungal growth in presence of fluconazole by checker board microdilution assay; type: functional
Candida albicans [6] = assay: Antifungal activity against fluconazole-resistant Candida albicans 632 assessed as inhibition of fungal growth by checker board microdilution assay; type: functional
Candida albicans [7] = assay: Synergistic antifungal activity against fluconazole-resistant Candida albicans 632 assessed as inhibition of fungal growth in presence of fluconazole by checker board microdilution assay; type: functional
Candida albicans [8] = assay: Synergistic antifungal activity against fluconazole-resistant Candida albicans 901 assessed as inhibition of fungal growth in presence of fluconazole by checker board microdilution assay; type: functional
Candida albicans [9] = assay: Synergistic antifungal activity against fluconazole-resistant Candida albicans 103 assessed as inhibition of fungal growth in presence of fluconazole by checker board microdilution assay; type: functional
Candida albicans [10] = assay: Antibiofilm activity against Candida albicans 904 assessed as inhibition of […] metabolism within the biofilm after 48 hrs by XTT reduction assay; type: functional
Candida albicans [11] = assay: Fungicidal activity against Candida albicans 904 assessed as colony forming at 4 times MIC incubated for 48 hrs by time-kill curve assay; type: functional
Candida albicans [12] = assay: Synergistic antifungal activity against fluconazole-resistant Candida albicans 904 assessed as inhibition of fungal growth in presence of fluconazole by checker board microdilution assay; type: functional
Candida albicans [13] = assay: Antifungal activity against fluconazole-resistant Candida albicans 904 assessed as inhibition of fungal growth by checker board microdilution assay; type: functional
Candida albicans [14] = assay: Reversal of fluconazole mediated azole resistant Candida albicans 904 assessed as upregulation of CDR1 expression at 32 ug/ml by RT-PCR; type: functional, organism-based; details: dose 32.0 µg/ml
Candida albicans [15] = assay: Reversal of fluconazole mediated azole resistant Candida albicans 904 assessed as upregulation of CDR2 expression at 32 ug/ml by RT-PCR; type: functional, organism-based; details: dose 32.0 µg/ml
Candida albicans [16] = assay: Antibiofilm activity against Candida albicans 904 assessed as inhibition of […] metabolism within the biofilm after 24 hrs by XTT reduction assay; type: functional
Candida albicans [17] = assay: Antifungal activity against fluconazole-resistant Candida albicans 311 assessed as inhibition of fungal growth by checker board microdilution assay; type: functional
A549 = assay: Cytotoxicity against human A549 cell assessed as inhibition of cell growth after 24 hrs by MTT assay; type: functional, cell-based; details: A549, 24 h
Candida albicans [18] = assay: Synergetic antifungal activity against fluconazole-resistant Candida albicans 632 assessed as fractional inhibitory concentration index in presence of fluconazole by checker board microdilution assay; type: functional
[19] = Metabolic stability in human liver microsomes assessed as intrinsic clearance in presence of NADPH cofactor under shaking condition for 10 mins measured after 5 to 60 mins by LC-MS/MS analysis; type: ADME, Microsome; details: time 15-70 min
[20] = Cytotoxicity against human BEAS-2B cell assessed as inhibition of cell growth after 24 hrs by MTT assay; type: toxicity, cell-based; details: BEAS-2B cells
Candida albicans [21] = assay: Potentiation of fluconazole-induced antifungal activity against fluconazole-resistant Candida albicans 632 assessed as fluconazole MIC by checker board microdilution assay; type: functional
MCF7 = assay: Cytotoxicity against human MCF7 cell assessed as inhibition of cell growth after 24 hrs by MTT assay; type: functional, cell-based; details: MCF7, 24 h
CYP2D6 = CYP2D6 (Homo sapiens, UniProt P10635); assay: Inhibition of CYPD6 in human liver microsome at 10 uM using dextromethorphan as substrate incubated for 10 mins in presence of NADPH cofactor by LC-MS/MS analysis; type: ADME; details: liver microsomes, probe dextromethorphan
Chain of CYP2D6 (P10635 whole entry): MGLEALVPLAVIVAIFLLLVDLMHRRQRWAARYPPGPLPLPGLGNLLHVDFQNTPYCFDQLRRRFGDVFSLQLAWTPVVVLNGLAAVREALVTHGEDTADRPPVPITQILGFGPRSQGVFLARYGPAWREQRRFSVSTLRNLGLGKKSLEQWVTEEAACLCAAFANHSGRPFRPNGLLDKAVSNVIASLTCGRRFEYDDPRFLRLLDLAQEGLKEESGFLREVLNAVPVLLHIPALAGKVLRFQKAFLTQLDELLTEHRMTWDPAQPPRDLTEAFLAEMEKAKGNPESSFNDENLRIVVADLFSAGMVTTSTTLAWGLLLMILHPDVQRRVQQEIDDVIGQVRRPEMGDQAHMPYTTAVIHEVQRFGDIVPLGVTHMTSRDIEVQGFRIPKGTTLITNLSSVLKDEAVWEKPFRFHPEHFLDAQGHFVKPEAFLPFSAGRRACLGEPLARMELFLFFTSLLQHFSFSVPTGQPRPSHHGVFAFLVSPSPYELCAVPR

Candida albicans [22] = assay: Synergetic antifungal activity against fluconazole-resistant Candida albicans 311 assessed as fractional inhibitory concentration index in presence of fluconazole by checker board microdilution assay; type: functional
[23] = Stability in human plasma assessed as half life at 120 mins by LC-MS/MS analysis; type: ADME, cell-free
Candida albicans [24] = assay: Potentiation of fluconazole-induced antifungal activity against fluconazole-resistant Candida albicans 904 assessed as fluconazole MIC by checker board microdilution assay; type: functional
[25] = Metabolic stability in human liver microsomes assessed as compound remaining in presence of NADPH cofactor under shaking condition for 10 mins measured after 60 mins by LC-MS/MS analysis; type: ADME, Microsome; details: time 70 min, read-out: Stability
[26] = Stability in human plasma assessed as compound remaining at 120 mins by LC-MS/MS analysis; type: ADME, cell-free; details: read-out: Stability
Candida albicans [27] = assay: Potentiation of fluconazole-induced antifungal activity against fluconazole-resistant Candida albicans 100 assessed as fluconazole MIC by checker board microdilution assay; type: functional
CYP1A2 = biological target: T1, CYP1A2 (Homo sapiens, UniProt P05177); assay: Inhibition of CYP1A2 in human liver microsome at 10 uM using phenacetin as substrate incubated for 10 mins in presence of NADPH cofactor by LC-MS/MS analysis; type: ADME; details: liver microsomes, probe phenacetin
T1 sequence (P05177 whole entry): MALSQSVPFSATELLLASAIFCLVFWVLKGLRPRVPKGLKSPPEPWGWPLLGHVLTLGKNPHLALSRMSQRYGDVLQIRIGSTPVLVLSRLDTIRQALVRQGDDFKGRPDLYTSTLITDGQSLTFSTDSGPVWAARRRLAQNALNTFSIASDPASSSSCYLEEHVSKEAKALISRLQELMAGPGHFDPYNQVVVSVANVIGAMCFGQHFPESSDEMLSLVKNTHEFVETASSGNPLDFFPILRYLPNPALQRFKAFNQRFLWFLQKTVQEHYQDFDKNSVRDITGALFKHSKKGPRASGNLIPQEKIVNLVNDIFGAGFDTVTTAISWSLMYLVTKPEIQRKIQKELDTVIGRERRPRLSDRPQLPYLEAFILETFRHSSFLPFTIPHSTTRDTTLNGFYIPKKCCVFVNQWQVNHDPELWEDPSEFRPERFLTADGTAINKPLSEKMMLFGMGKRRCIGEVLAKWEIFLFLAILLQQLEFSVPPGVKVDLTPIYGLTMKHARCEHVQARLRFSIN

[28] = Metabolic stability in human liver microsomes assessed as half life in presence of NADPH cofactor under shaking condition for 10 mins measured after 5 to 60 mins by LC-MS/MS analysis; type: ADME, Microsome; details: time 15-70 min
CYP2C19 = CYP2C19 (Homo sapiens, UniProt P33261); assay: Inhibition of CYP2C19 in human liver microsome at 10 uM using S-mephenytoin as substrate incubated for 10 mins in presence of NADPH cofactor by LC-MS/MS analysis; type: ADME; details: liver microsomes, probe S-mephenytoin
Chain of CYP2C19 (P33261 whole entry): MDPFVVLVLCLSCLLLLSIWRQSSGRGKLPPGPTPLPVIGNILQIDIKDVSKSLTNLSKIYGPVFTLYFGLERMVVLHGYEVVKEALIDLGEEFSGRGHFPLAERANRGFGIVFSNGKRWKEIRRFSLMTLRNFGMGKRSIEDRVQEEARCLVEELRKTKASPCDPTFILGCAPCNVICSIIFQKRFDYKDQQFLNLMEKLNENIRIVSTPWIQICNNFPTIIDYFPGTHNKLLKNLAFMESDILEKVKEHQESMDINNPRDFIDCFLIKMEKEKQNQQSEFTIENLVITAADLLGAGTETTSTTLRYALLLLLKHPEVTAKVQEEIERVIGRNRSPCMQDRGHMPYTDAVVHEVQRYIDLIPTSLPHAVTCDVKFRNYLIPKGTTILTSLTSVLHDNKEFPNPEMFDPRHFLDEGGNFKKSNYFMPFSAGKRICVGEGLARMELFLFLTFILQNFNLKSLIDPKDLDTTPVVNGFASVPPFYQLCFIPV

[29] = Binding affinity to recombinant Candida albicans Hsp90 NBD expressed in Escherichia coli by SPR assay
Candida albicans [30] = assay: Synergetic antifungal activity against fluconazole-resistant Candida albicans 904 assessed as fractional inhibitory concentration index in presence of fluconazole by checker board microdilution assay; type: functional
Candida albicans [31] = assay: Synergetic antifungal activity against fluconazole-resistant Candida albicans 103 assessed as fractional inhibitory concentration index in presence of fluconazole by checker board microdilution assay; type: functional
[32] = Cytotoxicity against mouse BV-2 cell assessed as inhibition of cell growth after 24 hrs by MTT assay; type: toxicity, cell-based; details: BV-2 cells
[33] = Cytotoxicity against human THLE-2 cell assessed as inhibition of cell growth after 24 hrs by MTT assay; type: toxicity, cell-based; details: THLE-2 cells
Heat shock protein HSP90 = Heat shock protein HSP90 (Homo sapiens, UniProt P07900+P08238); assay: Binding affinity to human Hsp90 expressed in Escherichia coli by SPR assay
Candida albicans [34] = assay: Potentiation of fluconazole-induced antifungal activity against fluconazole-resistant Candida albicans 901 assessed as fluconazole MIC by checker board microdilution assay; type: functional
[35] = Cytotoxicity against mouse NIH3T3 cell assessed as inhibition of cell growth after 24 hrs by MTT assay; type: toxicity, cell-based; details: NIH3T3 cells
Candida albicans [36] = assay: Potentiation of fluconazole-induced antifungal activity against fluconazole-resistant Candida albicans 103 assessed as fluconazole MIC by checker board microdilution assay; type: functional
HepG2 = assay: Cytotoxicity against human HepG2 cell assessed as inhibition of cell growth after 24 hrs by MTT assay; type: functional, cell-based; details: HepG2, 24 h
[37] = Metabolic stability in human liver microsomes assessed as microsomal intrinsic clearance in presence of NADPH cofactor under shaking condition for 10 mins measured after 5 to 60 mins by LC-MS/MS analysis; type: ADME, Microsome; details: time 15-70 min
RAW264.7 = assay: Cytotoxicity against mouse RAW264.7 cell assessed as inhibition of cell growth after 24 hrs by MTT assay; type: functional, cell-based; details: RAW264.7, 24 h
Candida albicans [38] = assay: Synergetic antifungal activity against fluconazole-resistant Candida albicans 100 assessed as fractional inhibitory concentration index in presence of fluconazole by checker board microdilution assay; type: functional
CYP3A4 = CYP3A4 (Homo sapiens, UniProt P08684); assay: Inhibition of CYP3A4 in human liver microsome at 10 uM using midazolam as substrate incubated for 10 mins in presence of NADPH cofactor by LC-MS/MS analysis; type: ADME; details: liver microsomes, probe midazolam
Chain of CYP3A4 (P08684 whole entry): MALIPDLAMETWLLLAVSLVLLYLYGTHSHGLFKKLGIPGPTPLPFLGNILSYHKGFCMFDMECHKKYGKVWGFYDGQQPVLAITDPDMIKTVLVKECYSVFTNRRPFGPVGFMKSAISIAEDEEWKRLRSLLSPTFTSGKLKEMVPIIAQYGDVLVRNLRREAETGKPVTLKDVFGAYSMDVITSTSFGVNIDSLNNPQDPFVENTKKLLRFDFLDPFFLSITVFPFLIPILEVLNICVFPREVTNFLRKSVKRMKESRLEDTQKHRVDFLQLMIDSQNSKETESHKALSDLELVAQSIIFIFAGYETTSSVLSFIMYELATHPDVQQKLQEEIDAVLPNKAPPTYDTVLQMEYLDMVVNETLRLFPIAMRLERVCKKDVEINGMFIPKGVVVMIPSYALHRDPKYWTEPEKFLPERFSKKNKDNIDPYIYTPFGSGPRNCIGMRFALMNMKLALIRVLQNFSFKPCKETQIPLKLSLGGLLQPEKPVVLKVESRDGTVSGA

Candida albicans [39] = assay: Synergetic antifungal activity against fluconazole-resistant Candida albicans 901 assessed as fractional inhibitory concentration index in presence of fluconazole by checker board microdilution assay; type: functional
CYP2C9 = CYP2C9 (Homo sapiens, UniProt P11712); assay: Inhibition of CYP2C9 in human liver microsome at 10 uM using diclofenac as substrate incubated for 10 mins in presence of NADPH cofactor by LC-MS/MS analysis; type: ADME; details: liver microsomes, probe diclofenac
Chain of CYP2C9 (P11712 whole entry): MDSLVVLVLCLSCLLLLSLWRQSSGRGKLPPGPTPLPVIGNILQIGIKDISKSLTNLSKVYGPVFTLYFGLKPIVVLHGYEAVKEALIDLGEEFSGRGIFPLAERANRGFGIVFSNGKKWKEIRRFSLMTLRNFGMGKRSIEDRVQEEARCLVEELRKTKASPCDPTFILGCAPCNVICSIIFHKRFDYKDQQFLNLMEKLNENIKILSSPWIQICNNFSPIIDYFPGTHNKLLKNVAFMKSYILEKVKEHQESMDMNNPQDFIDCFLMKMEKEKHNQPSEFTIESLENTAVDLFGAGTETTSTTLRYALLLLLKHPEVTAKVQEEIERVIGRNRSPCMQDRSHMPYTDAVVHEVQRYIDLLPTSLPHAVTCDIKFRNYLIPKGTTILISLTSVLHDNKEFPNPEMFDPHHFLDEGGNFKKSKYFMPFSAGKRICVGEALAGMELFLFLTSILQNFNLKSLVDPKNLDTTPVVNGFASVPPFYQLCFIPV

Candida albicans [40] = assay: Potentiation of fluconazole-induced antifungal activity against fluconazole-resistant Candida albicans 311 assessed as fluconazole MIC by checker board microdilution assay; type: functional

For `OC(Cn1cncn1)(Cn1cncn1)c1ccc(F)cc1F` [FLUCONAZOLE], the MIC80 (Candida albicans [1]) was > 64 µg/mL, the MIC80 (Candida albicans [2]) was > 64 µg/mL and the MIC80 (Candida albicans [3]) was > 64 µg/mL. For the same compound, the MIC80 (Candida albicans [4]) was 64 µg/mL, the MIC80 (Candida albicans [5]) was > 64 µg/mL and the MIC80 (Candida albicans [6]) was > 64 µg/mL. For the same compound, the MIC80 (Candida albicans [7]) was > 64 µg/mL, the MIC80 (Candida albicans [8]) was > 64 µg/mL and the MIC80 (Candida albicans [9]) was > 64 µg/mL. For the same compound, the MIC50 (Candida albicans [10]) was > 64 µg/mL, the MFC (Candida albicans [11]) was > 64 µg/mL and the MIC80 (Candida albicans [12]) was > 64 µg/mL. The MIC80 (Candida albicans [13]) was > 64 µg/mL, the Activity (Candida albicans [14]) was “Active” and the Activity (Candida albicans [15]) was “Active”. It also gave an MIC50 (Candida albicans [16]) of 32 µg/mL (≈ 104 µM) and an MIC80 (Candida albicans [17]) of 64 µg/mL.
With `CCNC(=O)c1noc(-c2cc(-c3ccc(C)cc3)c(O)cc2O)c1-c1ccc(CN2CCCCC2)cc1` the IC50 (A549) was 13.8 µM, the “fractional inhibitory concentration index (FICI)” value (Candida albicans [18]) was 0.039 and the CLint [19] was 28.8 mL/min/kg. The IC50 at 24 h [20] was 10 µM, the MIC80 (Candida albicans [21]) was 2 µg/mL and the MIC80 (Candida albicans [1]) was > 64 µg/mL. The IC50 (MCF7) was 5.49 µM, the inhibition at 10 min, 10 µM (CYP2D6) was 76.6% and the MIC80 (Candida albicans [2]) was > 64 µg/mL. The “fractional inhibitory concentration index (FICI)” value (Candida albicans [22]) was 0.047, the MIC80 (Candida albicans [3]) was 1 µg/mL and the half-life [23] was > 288 min. The MIC80 (Candida albicans [24]) was 2 µg/mL, the remaining at 1.167 h [25] was 37.9% and the MIC80 (Candida albicans [4]) was > 64 µg/mL. For the same compound, the MIC80 (Candida albicans [5]) was 0.25 µg/mL, the MIC80 (Candida albicans [6]) was > 64 µg/mL and the remaining at 2 h [26] was 90.6%. The MIC80 (Candida albicans [27]) was 1 µg/mL, the inhibition at 10 min, 10 µM (CYP1A2) was 12% and the half-life [28] was 43.3 min. The inhibition at 10 min, 10 µM (CYP2C19) was 25.4%, the MIC80 (Candida albicans [7]) was 0.5 µg/mL and the Kd [29] was 0.139 µM. For the same compound, the MIC80 (Candida albicans [8]) was 0.25 µg/mL, the MIC80 (Candida albicans [9]) was 0.5 µg/mL and the “fractional inhibitory concentration index (FICI)” value (Candida albicans [30]) was 0.035. For the same compound, the “fractional inhibitory concentration index (FICI)” value (Candida albicans [31]) was 0.039, the IC50 at 24 h [32] was 4.06 µM and the IC50 at 24 h [33] was 5.72 µM. For the same compound, the Kd (Heat shock protein HSP90) was > 25 µM, the MIC80 (Candida albicans [34]) was 1 µg/mL and the MIC80 (Candida albicans [12]) was 0.25 µg/mL. The IC50 at 24 h [35] was 0.73 µM, the MIC80 (Candida albicans [36]) was 2 µg/mL and the IC50 (HepG2) was 4.71 µM. For the same compound, the CLint [37] was 32 µL/min/mg, the IC50 (RAW264.7) was 3.87 µM and the “fractional inhibitory concentration index (FICI)” value (Candida albicans [38]) was 0.02. For the same compound, the MIC80 (Candida albicans [13]) was > 64 µg/mL, the inhibition at 10 min, 10 µM (CYP3A4) was 39.8% and the “fractional inhibitory concentration index (FICI)” value (Candida albicans [39]) was 0.02. For the same compound, the inhibition at 10 min, 10 µM (CYP2C9) was 39.2%, the MIC80 (Candida albicans [17]) was > 64 µg/mL and the MIC80 (Candida albicans [40]) was 2 µg/mL.
